Measurements taken from patent US11517603B2, “Bone remodeling accelerator” (HOKURIKU UNIVERSITY, priority 2017, dated 2022).

Assays:
[1] = system: osteoblast differentiation of mouse bone marrow cells; experiment: Differentiation of osteoblast: ALP-positive osteoblast nodules in mouse bone marrow cell culture; format: cell-based; settings: final concentration of 5 μM and 10 μM; p<0.05 or p<0.01; FIG. 1
Protocol: Mouse bone marrow cells were seeded in each well of a microplate containing 0.5 mL Eagle minimum essential medium a modified type (α-MEM) (manufactured by MP Biomedicals INC.) at 2.5×10^6 cells/well, and cultured at 37° C., carbon dioxide concentration=5(v/v)%. […] On days 1 and 4 of culture, a differentiation induction reagent (0.2 mM ascorbic acid, 2.5 mM β-glycerophosphoric acid, 10 nM dexamethasone) was added to the following final concentrations. At 6 days from the culture, the cells were stained with alkaline phosphatase (ALP), observed with a microscope (inverted culture microscope “CK40”, manufactured by Olympus Corporation, magnification=40×), and the osteoblast nodule stained with ALP, i.e., cell nodule formed by differentiated osteoblast, was detected.

[2] = system: osteoclast differentiation of mouse bone marrow cells; experiment: Differentiation of osteoclast: TRAP-positive osteoclasts in mouse bone marrow cell culture; format: cell-based; settings: FIG. 2
Protocol: Mouse bone marrow cells were seeded in each well of a microplate containing 0.5 mL α-MEM (manufactured by MP Biomedicals INC.) at 3.5×10^6 cells/well, and cultured at 37° C., carbon dioxide concentration=5(v/v)%. […] On days 1 and 4 of culture, a differentiation induction reagent (calcitriol) was added to a final concentration of 10 nM. At 6 days from the culture, the cells were stained with tartaric acid resistance acidic phosphatase (TRAP), observed with a microscope (inverted culture microscope “CK40”, manufactured by Olympus Corporation, magnification=40×), and the cells stained with TRAP, i.e., differentiated osteoclasts, were detected.

O=C1CC(c2ccc(O)c(O)c2)Oc2cc(OC3OC(CO)C(O)C(O)C3O)ccc21 [F2, 3′,4′,7-trihydroxyflavanone 7-O-β-D-glucopyranoside]
number of ALP-positive osteoblast nodules versus control [1]: significant difference from the control | final concentration at which a concentration-dependent differentiation accelerating action on osteoclast was exhibited ([2]; TRAP-positive osteoclast number per well, 6 days of culture): ≥ 2.5 µM | TRAP-positive osteoclast number versus control ([2]; final concentration of 5 μM and 10 μM): significant difference of p<0.05
